US20140256693A1, “PYRROLO [1,2-C] IMIDAZOLE DERIVATIVES FOR USE IN THE PROPHYLAXIS OR TREATMENT OF CANCER WHICH IS REFRACTORY TO KNOWN CANCER THERAPIES” (TAKEDA PHARMACEUTICAL COMPANY LIMITED, priority 2007, published 2014)

Test system: castrated male cynomolguses
Experiment: Serum DHEA and testosterone in castrated male cynomolguses after repeated oral administration (RIA)
Type: in vivo
Settings: castrated male cynomolgus, 7.5 or 15 mg/kg/dose oral, twice a day for one week
Method: (+)-6-(7-Hydroxy-6,7-dihydro-5H-pyrrolo[1,2-c]imidazol-7-yl)-N-methyl-2-naphthamide was used as a test compound belonging to compound (I′). For oral administration, the test compound was weighed and placed in a mortar, 0.5% methylcellulose solution was added thereto, and the mixture was sufficiently admixed with a pestle to give a suspension.
6 to 12-year-old castrated male cynomolguses were divided into two groups (7.5 mg/kg/time test compound administration group and 15 mg/kg/time test compound administration group) each including 3 cynomolguses such that blood DHEA concentration would be impartial. The test compound was repeatedly administered orally twice a day (bid) for one week. Blood samples were collected twice a day from 3 days prior to the administration through the final day of administration. Vehicle (0.5% methylcellulose) was administered about one month after the completion of administration, and blood samples were collected according to the same schedule. Serum DHEA and serum testosterone concentrations were measured by RIA (radioimmunoassay).
The serum DHEA concentrations of the test compound administration group are shown in FIG. 1, and the serum DHEA concentrations of the vehicle administration group where vehicle was administered about a month after completion of the administration of the test compound are shown in FIG. 2. […]

Q: `CNC(=O)c1ccc2cc(C3(O)CCn4cncc43)ccc2c1` (single isomer, unassigned; (+)) [test compound, (+)-6-(7-Hydroxy-6,7-dihydro-5H-pyrrolo[1,2-c]imidazol-7-yl)-N-methyl-2-naphthamide] was tested. Which “serum DHEA concentration” value (FIG. 1, maintained at low levels during the administration period) did it give?
A: decreased

Q: What about the serum testosterone concentration (FIG. 3, maintained at low levels during the administration period) of the same compound?
A: decreased
